Laboratory results taken from patent US12403172B2, “Composition for preventing, alleviating or treating metabolic syndrome accompanied by obesity and/or diabetes, containing, as active ingredient, complex (IB complex) of Indian gooseberry extract and sprout barley extract” (HLSCIENCE CO., LTD, priority 2019, dated 2025).
Marks after values point to notes of the source that are not given here.

Test system: obesity-induced mice from high fat diet
Assay: Body weight change of obesity-induced mice
Type: in vivo, C57BL/6J mice
Details: 60% high fat diet + Metformin 250 mg/kg b.w.
Protocol: The effect on the body weight change of obesity-induced mice from high fat diet of the complex of the Indian gooseberry extract and barley sprout extract of the present invention was confirmed. As an experimental animal, 4-week male C57BL/6J mice around 20 g were supplied from Saeron Bio Inc. (Uiwang-si, Korea). They were used for the experiment, after passing through the adaptation period for 1 week under the condition that the light and dark was 12 hours (light/dark cycle) and the temperature was 23±2° C. and the relative humidity was 50±5%. During the adaptation period, AIN-93G diet and drinking water were allowed to be consumed freely, and the body weight was measured to separate 8 mice per each group by the random method. At the end of the adaptation period, the sample intake was progressed as free diet intake for 15 weeks, and the dietary intake and body weight were measured every week, and after the end of the experiment, the weight gain was divided by the dietary intake (total food consumption)) for the same period to calculate the food efficiency ratio (FER). The classification of the experimental group and the composition of the experimental diet were shown in Table 5, and the equation of the diet efficiency was shown in the following equation 3. FER=weight gain (g)/total food consumption (g)×100 Equation 3

CN(C)C(=N)N=C(N)N [Met, Metformin]
Initial body weight: 19.26 ± 0.66 g | Final body weight (g) (15 weeks): 39.46 ± 2.16^d g | Food intake (g/day/mouse) (15 weeks): 2.66 ± 0.18^b g/day/mouse | Weight gain (g) (15 weeks): 20.20 ± 1.89^c g | FER (food efficiency ratio) (weight gain/total food consumption x100): 7.25 ± 0.68^c
